Values after ≈ are worked out from the molar mass of the structure shown. Counter-ions that a name gives are not always drawn. Marks after values point to notes of the source that are not given here.
Columns and labels:
[1] = Approximate solubility in different solvents at RT; format: physicochemical; settings: RT; for solubility: organic solvent or mixture
Method: For each experiment, approximately 2 mg of sample was added into a 3-mL glass vial. Corresponding solvents were then added stepwise (50/50/200/700/1000 μL) into the vials until the solids were dissolved visually or a total volume of 2 mL was reached. Solubility results summarized in Table 64 to Table 66 were used to guide the solvent selection in polymorph screening design.

[2] = physchem
Method: 0.1 M KH2PO4 solution: added 1.36 g of solid KH2PO4 into a 100-mL volumetric flask, dissolve with ultrapure water and dilute to volume. 0.1 M K2HPO4 solution: added 1.74 g of solid K2HPO4 into a 100-mL volumetric flask, dissolve with ultrapure water and dilute to volume.
Transferred 100 mL of 0.1 M K2HPO4 solution and 30 mL of 0.1 M KH2PO4 to a 250-mL beaker and mix well. Adjusted to pH 7.4 with the KH2PO4 solution to obtain the aqueous pH 7.4 buffer. Pre-equilibrated n-octanol and aqueous buffer (phosphate pH 7.4 buffer) by adding 10 mL n-octanol and 10 mL aqueous buffer into a glass vial and keep it rolling for 24 hrs.
Weighed approximately 1.0 mg solids into a 3-mL glass vial which contained 2.0 mL of saturated n-octanol and accelerate dissolution by ultrasound sonication. Added 1.0 mL of complementary saturated aqueous buffer into the vial. Prepare samples in triplicate. Sealed the glass vial and mix on a rotary mixer at 25° C. for 24 hrs.
The phases were separated. The pH of the aqueous phase was measured by pH meter, and the concentrations of compounds in each phase were determined by HPLC. Samples in n-octanol phase were diluted 10 times by ACN. Distribution coefficient, referred to as Dow, was calculated as the concentration of the test compound in the n-octanol phase divided by the corresponding concentration in the aqueous phase.

[3] = Characterization of Compound 1 freeform forms: form change on storage or drying (XRPD); format: physicochemical
Method: Starting from Compound 1 Freeform Type D, polymorph screening experiments were performed under 50 conditions using different solvent-mediated crystallization or solid transition methods. The obtained solids were characterized by XRPD. According to XRPD comparison results, a total of 16 crystal forms were discovered, named as Type A˜P. The characterization results of all the forms were listed in Table 60.
Freeform Type O was obtained after adding anti-solvent toluene into DMSO solution of Freeform Type D and drying at ambient conditions. After drying at RT under vacuum for 1 day, diffraction peaks of Freeform Type K were observed. As Freeform Type K was a DMSO solvate, it is speculated that Freeform Type O was also a DMSO solvate.

[4] = Competitive experiments of Type A and Type B in different solvent system at different temperature; format: physicochemical; settings: MeOH/MTBE system
[5] = Hygroscopicity by DVS at 25° C.; format: physicochemical
Method: DVS was measured via a SMS (Surface Measurement Systems) DVS Intrinsic. The relative humidity at 25° C. were calibrated against deliquescence point of LiCl, Mg(NO3)2 and KCl.

[6] = Kinetic solubility in water and bio-relevant media (SGF, FaSSIF, FeSSIF) at 37° C.; format: physicochemical; settings: for S: Solubility: calculated by freeform; for FC: Form change: residual solids by XRPD
Method: Add 4 mL of medium (H2O, SGF, FaSSIF and FeSSIF). • Rolled at 37° C. (˜25 rpm). Sampling at 1, 2, 4 and 24 hrs. • At each time-point, sampled 0.8 mL of solution or suspension into a centrifuge tube prior to centrifugation (12000 rpm, 37° C., 5 min) and filtration through 0.45 μm PTFE membrane. • Tested pH and concentration for the filtrate. Analyze residual solids by XRPD.
0.1 g of NaCl and 0.05 g of Triton X-100 were weighed into a 50-mL volumetric flask. Purified water was added to dissolve the solid. 67.5 μL HCl (38%, 12M) was added after the solid was dissolved completely. pH was then adjusted to 1.8 using HCl (1 M) or NaOH (1 M). Purified water was added to the volume.
(§1) 0.17 g of anhydrous NaH2PO4, 0.021 g of NaOH and 0.31 g of NaCl were weighed into a 50-mL volumetric flask. ˜48 mL purified water was added to dissolve the solid. pH was adjusted to 6.5 using 1M HCl or 1M NaOH. Purified water was then added to the volume. 0.11 g of SIF powder was added into the volumetric flask.
as §1, with “0.41 mL” for “0.17 g”, “acetic acid, 0.20” for “anhydrous NaH2PO4, 0.021”, “0.59” for “0.31”, “5.0” for “6.5”, “0.56” for “0.11”

[7] = Solid state stability at 25° C./60% RH and 40° C./75% RH for 1 week; format: physicochemical
Method: Each sample was added into a glass vial, sealed by parafilm with several holes, and kept under tested conditions. After one week, samples were taken for XRPD and HPLC purity test.

N#Cc1ccc(COc2cccc(C3CCN(Cc4nc5ccc(C(=O)O)cc5n4Cc4cncs4)CC3)n2)c(F)c1 [Freeform Type A]
solubility ([1]; 1,4-Dioxane, thermodynamic from solid, 1,4-Dioxane): 1900 to 6300 µg/mL (≈ 3.26 to 10.8 mM) | solubility ([1]; 2-MeTHF, thermodynamic from solid): 1900 to 6300 µg/mL (≈ 3.26 to 10.8 mM) | solubility ([1]; ACN, thermodynamic from solid): 1000 to 1900 µg/mL (≈ 1.72 to 3.26 mM) | solubility ([1]; Anisole, thermodynamic from solid): 1100 to 2100 µg/mL (≈ 1.89 to 3.6 mM) | solubility ([1]; CPME, thermodynamic from solid): 1100 to 2100 µg/mL (≈ 1.89 to 3.6 mM) | solubility ([1]; DMSO, thermodynamic from solid): > 40000 µg/mL | solubility ([1]; EtOAc, thermodynamic from solid): 2000 to 6700 µg/mL (≈ 3.43 to 11.5 mM) | Approximate solubility ([1]; H2O): S < 1.1 mg/mL | solubility ([1]; IPA, thermodynamic from solid): 1100 to 2200 µg/mL (≈ 1.89 to 3.78 mM) | solubility ([1]; IPAc, thermodynamic from solid): 1000 to 1900 µg/mL (≈ 1.72 to 3.26 mM) | solubility ([1]; MIBK, thermodynamic from solid): 1000 to 2000 µg/mL (≈ 1.72 to 3.43 mM) | solubility ([1]; MTBE, thermodynamic from solid): < 1000 µg/mL | solubility ([1]; MeOH, thermodynamic from solid): 6700 to 20000 µg/mL (≈ 11.5 to 34.3 mM) | Approximate solubility ([1]; THF): S > 38.0 mg/mL | solubility ([1]; Toluene, thermodynamic from solid): < 1100 µg/mL | solubility ([1]; n-Heptane, thermodynamic from solid): < 1000 µg/mL | logP [2]: 4.78 | logD at 24 h ([2]; pH 7.2): 1.96

N#Cc1ccc(COc2cccc(C3CCN(Cc4nc5ccc(C(=O)O)cc5n4Cc4cncs4)CC3)n2)c(F)c1 [Freeform Type F]
Form change ([3]; after storage at RT): Change to Freeform Type J after storage at RT.

N#Cc1ccc(COc2cccc(C3CCN(Cc4nc5ccc(C(=O)O)cc5n4Cc4cncs4)CC3)n2)c(F)c1 [Freeform Type O]
Form change ([3]; after drying at RT under vacuum): Change to Freeform Type K after drying at RT under vacuum.

N#Cc1ccc(COc2cccc(C3CCN(Cc4nc5ccc(C(=O)O)cc5n4Cc4cncs4)CC3)n2)c(F)c1 [Meglumine salt Type B]
thermodynamic stability, Type A versus Type B [4]: thermodynamically more stable

N#Cc1ccc(COc2cccc(C3CCN(Cc4nc5ccc(C(=O)O)cc5n4Cc4cncs4)CC3)n2)c(F)c1 [Tris salt Type C]
water uptake (DVS) ([5]; 25° C./80% RH): 1.44% | hygroscopicity ([5]; DVS, 25° C.): slightly hygroscopic | Water uptake at 25° C./80% RH ([5]; DVS, 25° C./80% RH): 1.44 wt % | For change after DVS ([5]; XRPD after DVS test): No | form change after DVS test (XRPD) ([5]; after DVS test): no form change | S: Solubility ([6]; FaSSIF, 37° C., 1 hr): 0.16 mg/mL | FC: Form change ([6]; FaSSIF, 37° C., 1 hr): Yes | S: Solubility ([6]; FaSSIF, 37° C., 2 hrs): 0.29 mg/mL | FC: Form change ([6]; FaSSIF, 37° C., 2 hrs): Yes | S: Solubility ([6]; FaSSIF, 37° C., 4 hrs): 0.28 mg/mL | FC: Form change ([6]; FaSSIF, 37° C., 4 hrs): Yes | S: Solubility ([6]; FaSSIF, 37° C., 24 hrs): 0.04 mg/mL | FC: Form change ([6]; FaSSIF, 37° C., 24 hrs): Yes | S: Solubility ([6]; FeSSIF, 37° C., 1 hr): 0.17 mg/mL | FC: Form change ([6]; FeSSIF, 37° C., 1 hr): No | S: Solubility ([6]; FeSSIF, 37° C., 2 hrs): 0.13 mg/mL | FC: Form change ([6]; FeSSIF, 37° C., 2 hrs): No | S: Solubility ([6]; FeSSIF, 37° C., 4 hrs): 0.02* mg/mL | FC: Form change ([6]; FeSSIF, 37° C., 4 hrs): No | FC: Form change ([6]; FeSSIF, 37° C., 24 hrs): Yes | solubility at 24 h ([6]; FeSSIF, 37 °C, pH 5, fessif, thermodynamic from solid, FeSSIF, 37° C., at 24 hrs, read-out: solubility in FeSSIF): 140 µg/mL | S: Solubility ([6]; H2O, 37° C., 1 hr): 0.46 mg/mL | FC: Form change ([6]; H2O, 37° C., 1 hr): No | S: Solubility ([6]; H2O, 37° C., 2 hrs): 0.59 mg/mL | FC: Form change ([6]; H2O, 37° C., 2 hrs): Yes | S: Solubility ([6]; H2O, 37° C., 4 hrs): 2.5 mg/mL | FC: Form change ([6]; H2O, 37° C., 4 hrs): Yes | S: Solubility ([6]; H2O, 37° C., 24 hrs): 0.99 mg/mL | FC: Form change ([6]; H2O, 37° C., 24 hrs): Yes | S: Solubility ([6]; SGF, 37° C., 1 hr): 0.15 mg/mL | FC: Form change ([6]; SGF, 37° C., 1 hr): No | S: Solubility ([6]; SGF, 37° C., 2 hrs): 0.03* mg/mL | FC: Form change ([6]; SGF, 37° C., 2 hrs): No | S: Solubility ([6]; SGF, 37° C., 4 hrs): 0.04* mg/mL | FC: Form change ([6]; SGF, 37° C., 4 hrs): Yes | S: Solubility ([6]; SGF, 37° C., 24 hrs): 0.17 mg/mL | FC: Form change ([6]; SGF, 37° C., 24 hrs): Yes | form change of residual solids (XRPD) after solubility test ([6]; all the media (H2O, SGF, FaSSIF, FeSSIF), after 24 hrs): form change was observed | Kinetic Solubility, 24-h solubility ([6]; in FeSSIF, 24 h, comparison among selected salts and Freeform Type C): 2) In FeSSIF, the 24-h solubility of Tris salt Type C was higher. | HPLC peak Area, RRT 0.70 ([7]; 25° C./60% RH, 1 week): 0.06% | HPLC peak Area, RRT 0.79 ([7]; 25° C./60% RH, 1 week): 0.23% | HPLC peak Area, RRT 0.80 ([7]; 25° C./60% RH, 1 week): 0.05% | HPLC peak Area, RRT 0.85 ([7]; 25° C./60% RH, 1 week): 0.07% | HPLC peak Area, RRT 0.93 ([7]; 25° C./60% RH, 1 week): 0.09% | Form change ([7]; 25° C./60% RH/Open/1 week): No | Purity ([7]; 25° C./60% RH/Open/1 week): 96.76 Area % | solid-state stability: form change and purity decrease ([7]; 25° C./60% RH/open and 40° C./75% RH/open, 1 week): no form change or significant purity decrease | HPLC peak Area, RRT 0.70 ([7]; 40° C./75% RH, 1 week): 0.05% | HPLC peak Area, RRT 0.79 ([7]; 40° C./75% RH, 1 week): 0.25% | HPLC peak Area, RRT 0.80 ([7]; 40° C./75% RH, 1 week): 0.05% | HPLC peak Area, RRT 0.85 ([7]; 40° C./75% RH, 1 week): <0.05% | HPLC peak Area, RRT 0.93 ([7]; 40° C./75% RH, 1 week): 0.09% | HPLC peak Area, RRT 0.99 ([7]; 40° C./75% RH, 1 week): <0.05% | HPLC peak Area, RRT 1.12 ([7]; 40° C./75% RH, 1 week): 0.05% | Form change ([7]; 40° C./75% RH/Open/1 week): No | Purity ([7]; 40° C./75% RH/Open/1 week): 96.82 Area % | HPLC peak Area, RRT 0.70 ([7]; Initial): 0.05% | HPLC peak Area, RRT 0.79 ([7]; Initial): 0.21% | HPLC peak Area, RRT 0.80 ([7]; Initial): 0.05% | HPLC peak Area, RRT 0.85 ([7]; Initial): 0.08% | HPLC peak Area, RRT 0.93 ([7]; Initial): 0.09% | HPLC peak Area, RRT 1.12 ([7]; Initial): 0.06% | Purity ([7]; Initial): 96.55 Area %

From patent publication US20240360122A1, “POLYMORPHIC FORMS AND SALTS OF A GLP-1R AGONIST” (Terns (Suzhou) Biotechnology Co., Ltd., priority 2023, published 2024)
